From patent publication US8557512B2, “Method of screening activators and/or inhibitors of insulin receptor substrate 2” (HMI Medical Innovations, LLC, priority 2003, dated 2013)
Where no end group is shown, it is not given here.

Assays:
[1] = test system: IRS2; experiment: IRS2 levels in mouse islets; type: cell-based
Excerpt: (§1) Drugs that increase IRS2 expression in mice stimulate beta cell function. An example of such a drug is exendin-4. Exendin-4 is a homolog of the natural peptide produced in the intestine called glucagon-like peptide-1. GLP1/Ex4 upregulates IRS2 levels in β-cells because they stimulate the production of cAMP. […] Other drugs that increase cAMP levels in these and other cells also increase IRS2 levels and stimulate its signaling pathways. Many of the positive actions of GLPL1/Ex4 on mouse and human cells are prevented by blocking the IRS2 gene from expressing its IRS2 protein product.

[2] = test system: IRS2; experiment: IRS2 levels in human islets; type: cell-based
Excerpt: as §1

[3] = test system: IRS2; experiment: IRS2 upregulation in beta cells and other cells; type: cell-based
Excerpt: (§2) Furthermore, GLP-1 also stimulates β-cell proliferation and neogenesis, and reduces or eliminates apoptosis of β-cells.

[4] = test system: IRS2; conditions: β-cell lines; Jhala et al., Genes Dev. 17:1575-1580 (2003); cited from earlier work
[5] = test system: IRS2 mice; experiment: Restoration of normal glucose homeostasis in IRS2 mice; type: in vivo; conditions: administration by injection
Excerpt: as §2

Row | Substance | levels of IRS2 [1] | levels of IRS2 [2] | IRS2 upregulation [3] | IRS2 expression [4] | restore normal glucose homeostasis [5]
1 | glucagon-like peptide-1 (HAEGTFTSDVSSYLEGQAAKEFIAWLVKGR; ends and bridges not checked; UniProt P01275 98-127, looked up) [GLP-1, natural peptide produced in the intestine] | upregulate the levels of IRS2 | upregulate the levels of IRS2 | strongly up regulates IRS2 | strongly increases IRS2 expression | 
2 | exendin-4 | upregulate the levels of IRS2 | upregulate the levels of IRS2 |  | strongly increases IRS2 expression | unsuccessful
